Where two headings read alike, the source gives them in different places.
Assays:
HDAC5 = HDAC5 (Homo sapiens, UniProt Q9UQL6); test: HDAC enzymatic assay, HDAC5; assay type: biochemical
Protocol: (§1) Each compound was dissolved in DMSO, and progressively diluted solutions were used for testing. […] Upon its deacetylation, the fluorophore was released given rise to fluorescence emission which was detected by a fluorimeter, and the IC50 values of the compounds were determined by analyzing dose-response inhibition curves.

HDAC6 = target: T1, HDAC6 (Homo sapiens, UniProt Q9UBN7); test: HDAC enzymatic assay, HDAC6; assay type: biochemical
T1 sequence (Q9UBN7 1-1215): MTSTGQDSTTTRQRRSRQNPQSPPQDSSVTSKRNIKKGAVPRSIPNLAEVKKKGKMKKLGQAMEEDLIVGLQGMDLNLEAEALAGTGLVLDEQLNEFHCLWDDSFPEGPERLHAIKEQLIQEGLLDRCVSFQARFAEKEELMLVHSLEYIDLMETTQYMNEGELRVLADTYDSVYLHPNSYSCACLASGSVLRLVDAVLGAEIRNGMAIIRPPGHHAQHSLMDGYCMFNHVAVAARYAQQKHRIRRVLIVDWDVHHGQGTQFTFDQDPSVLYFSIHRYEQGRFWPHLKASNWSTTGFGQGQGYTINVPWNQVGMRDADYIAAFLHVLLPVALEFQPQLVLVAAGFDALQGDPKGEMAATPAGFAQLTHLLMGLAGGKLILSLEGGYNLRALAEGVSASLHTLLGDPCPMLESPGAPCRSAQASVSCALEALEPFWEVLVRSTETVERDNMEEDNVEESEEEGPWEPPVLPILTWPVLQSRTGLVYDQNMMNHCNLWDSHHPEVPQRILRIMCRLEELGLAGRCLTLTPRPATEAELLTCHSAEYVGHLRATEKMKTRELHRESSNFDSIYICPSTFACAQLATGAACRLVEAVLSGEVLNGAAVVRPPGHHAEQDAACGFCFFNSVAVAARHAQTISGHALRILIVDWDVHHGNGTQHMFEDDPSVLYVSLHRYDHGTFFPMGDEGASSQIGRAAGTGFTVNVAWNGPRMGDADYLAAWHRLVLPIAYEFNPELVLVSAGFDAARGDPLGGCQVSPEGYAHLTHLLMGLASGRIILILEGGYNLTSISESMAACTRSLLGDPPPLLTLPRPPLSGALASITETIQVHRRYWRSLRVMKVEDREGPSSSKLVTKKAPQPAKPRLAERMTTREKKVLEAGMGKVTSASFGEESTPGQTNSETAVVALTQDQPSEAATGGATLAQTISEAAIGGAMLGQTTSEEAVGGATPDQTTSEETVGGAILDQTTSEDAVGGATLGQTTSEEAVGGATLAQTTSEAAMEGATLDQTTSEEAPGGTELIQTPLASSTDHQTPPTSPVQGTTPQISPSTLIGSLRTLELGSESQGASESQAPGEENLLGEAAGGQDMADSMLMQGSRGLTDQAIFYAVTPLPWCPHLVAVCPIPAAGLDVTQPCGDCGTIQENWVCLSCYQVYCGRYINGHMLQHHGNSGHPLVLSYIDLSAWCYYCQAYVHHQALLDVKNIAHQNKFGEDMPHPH
Protocol: as §1

HDAC8 = target: T2, HDAC8 (Homo sapiens, UniProt Q9BY41); test: HDAC enzymatic assay, HDAC8; assay type: biochemical
T2 sequence (Q9BY41 1-377): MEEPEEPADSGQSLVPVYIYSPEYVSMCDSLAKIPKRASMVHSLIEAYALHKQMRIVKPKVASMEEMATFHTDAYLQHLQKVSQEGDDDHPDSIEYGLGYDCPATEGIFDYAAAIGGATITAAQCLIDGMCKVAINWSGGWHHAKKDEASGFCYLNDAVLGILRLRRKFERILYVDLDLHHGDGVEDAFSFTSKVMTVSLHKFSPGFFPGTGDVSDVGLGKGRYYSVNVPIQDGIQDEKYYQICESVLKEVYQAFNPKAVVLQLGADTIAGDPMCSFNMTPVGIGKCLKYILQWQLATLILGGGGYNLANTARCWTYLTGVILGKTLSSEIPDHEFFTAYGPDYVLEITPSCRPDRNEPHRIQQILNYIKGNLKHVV
Protocol: as §1

HDAC9 = HDAC9 (Homo sapiens, UniProt Q9UKV0); test: HDAC enzymatic assay, HDAC9; assay type: biochemical
Protocol: as §1

[1] = target: T3, HDAC3 (complex of full length human HDAC3 with human NCOR2 amino acids 395-489) (Homo sapiens, UniProt O15379); test: HDAC enzymatic assay, HDAC3; assay type: biochemical
T3 construct: complex of full length human HDAC3 with a C-terminal His-tag; His-tag (C); host or cells: baculovirus expression system
Protocol: as §1

[2] = tested on: HCT116 colon cancer cells; test: Cytotoxicity, sulphorodamine B, HCT116; settings: Homo sapiens, HCT-116, read-out: HCT116 cell line IC50 (μM)
Protocol: They were allowed to attach and recover for at least 24 h.
The plates were incubated for 24 h at 37° C., after which they were washed 3 times by removal of the supernatant and addition of PBS. The plates were then incubated for further 48 h at 37° C. 200 μl PBS and 50 μl of cold 80% TCA were added and the plates were incubated on ice for at least 1 h. TCA was removed and the plates were washed 3 times by immersion in distilled-water. They were then dried on paper at 40° C. for 5 min. 200 μl of 0.4% sulphorodamine B in 1% acetic acid were added. The plates were incubated at room temperature for further 30 min. Sulphorodamine B was removed, and the plates were washed 3 times by immersion in 1% acetic acid and were dried on paper and at 40° C. for 5 min. Then 200 μl Tris 10 mM were added. The plates were kept under magnetic stirring for 20 min. Cell survival was determined by means of optical density by a Multiskan spectrofluorimeter at 540 nm. The amount of cells killed was calculated as the percentage decrease in sulphorodamine B binding compared to control cultures.

HDAC11 = target: T4, HDAC11 (Homo sapiens, UniProt Q96DB2); test: HDAC enzymatic assay, HDAC11; assay type: biochemical
T4 sequence (Q96DB2 1-347): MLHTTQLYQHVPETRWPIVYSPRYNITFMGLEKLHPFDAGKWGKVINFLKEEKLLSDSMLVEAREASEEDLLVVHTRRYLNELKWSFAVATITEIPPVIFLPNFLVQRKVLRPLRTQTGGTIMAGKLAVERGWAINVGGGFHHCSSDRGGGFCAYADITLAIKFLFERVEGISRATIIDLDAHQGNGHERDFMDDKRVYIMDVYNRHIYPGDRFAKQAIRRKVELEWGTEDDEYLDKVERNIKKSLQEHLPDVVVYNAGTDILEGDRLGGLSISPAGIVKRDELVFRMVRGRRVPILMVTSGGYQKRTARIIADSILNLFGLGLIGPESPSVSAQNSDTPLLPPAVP
Protocol: as §1

HDAC1 = HDAC1 (Homo sapiens, UniProt Q13547); test: HDAC enzymatic assay, HDAC1; assay type: biochemical
Protocol: as §1

HDAC2 = HDAC2 (Homo sapiens, UniProt Q92769); test: HDAC enzymatic assay, HDAC2; assay type: biochemical
Protocol: as §1

[3] = Table 2, thio (SH) vs hydroxamate (CONHOH) MBG analogues, read-out: HDAC isoforms, 5 (IC50)
[4] = fluorogenic tetrapeptide RHKKAc substrate 10 μM, read-out: HDAC isoforms IC50 (nM), 5
[5] = Table 2, thio (SH) vs hydroxamate (CONHOH) MBG analogues, read-out: HDAC isoforms, 6 (IC50)
[6] = fluorogenic tetrapeptide RHKKAc substrate 10 μM, read-out: HDAC isoforms IC50 (nM), 6
[7] = Table 2, thio (SH) vs hydroxamate (CONHOH) MBG analogues, read-out: HDAC isoforms, 8 (IC50)
[8] = fluorogenic tetrapeptide RHKKAc substrate 10 μM, read-out: HDAC isoforms IC50 (nM), 8
[9] = Table 2, thio (SH) vs hydroxamate (CONHOH) MBG analogues, read-out: HDAC isoforms, 9 (IC50)
[10] = fluorogenic tetrapeptide RHKKAc substrate 10 μM, read-out: HDAC isoforms IC50 (nM), 9
[11] = Table 2, thio (SH) vs hydroxamate (CONHOH) MBG analogues, read-out: HDAC isoforms, 3 (IC50)
[12] = fluorogenic tetrapeptide RHKKAc substrate 10 μM, read-out: HDAC isoforms IC50 (nM), 3
[13] = Table 2, thio (SH) vs hydroxamate (CONHOH) MBG analogues, read-out: HDAC isoforms, 11 (IC50)
[14] = fluorogenic tetrapeptide RHKKAc substrate 10 μM, read-out: HDAC isoforms IC50 (nM), 11
[15] = Table 2, thio (SH) vs hydroxamate (CONHOH) MBG analogues, read-out: HDAC isoforms, 1 (IC50)
[16] = fluorogenic tetrapeptide RHKKAc substrate 10 μM, read-out: HDAC isoforms IC50 (nM), 1
[17] = Table 2, thio (SH) vs hydroxamate (CONHOH) MBG analogues, read-out: HDAC isoforms, 2 (IC50)
[18] = fluorogenic tetrapeptide RHKKAc substrate 10 μM, read-out: HDAC isoforms IC50 (nM), 2

Sequence of HDAC5 (Q9UQL6 whole entry): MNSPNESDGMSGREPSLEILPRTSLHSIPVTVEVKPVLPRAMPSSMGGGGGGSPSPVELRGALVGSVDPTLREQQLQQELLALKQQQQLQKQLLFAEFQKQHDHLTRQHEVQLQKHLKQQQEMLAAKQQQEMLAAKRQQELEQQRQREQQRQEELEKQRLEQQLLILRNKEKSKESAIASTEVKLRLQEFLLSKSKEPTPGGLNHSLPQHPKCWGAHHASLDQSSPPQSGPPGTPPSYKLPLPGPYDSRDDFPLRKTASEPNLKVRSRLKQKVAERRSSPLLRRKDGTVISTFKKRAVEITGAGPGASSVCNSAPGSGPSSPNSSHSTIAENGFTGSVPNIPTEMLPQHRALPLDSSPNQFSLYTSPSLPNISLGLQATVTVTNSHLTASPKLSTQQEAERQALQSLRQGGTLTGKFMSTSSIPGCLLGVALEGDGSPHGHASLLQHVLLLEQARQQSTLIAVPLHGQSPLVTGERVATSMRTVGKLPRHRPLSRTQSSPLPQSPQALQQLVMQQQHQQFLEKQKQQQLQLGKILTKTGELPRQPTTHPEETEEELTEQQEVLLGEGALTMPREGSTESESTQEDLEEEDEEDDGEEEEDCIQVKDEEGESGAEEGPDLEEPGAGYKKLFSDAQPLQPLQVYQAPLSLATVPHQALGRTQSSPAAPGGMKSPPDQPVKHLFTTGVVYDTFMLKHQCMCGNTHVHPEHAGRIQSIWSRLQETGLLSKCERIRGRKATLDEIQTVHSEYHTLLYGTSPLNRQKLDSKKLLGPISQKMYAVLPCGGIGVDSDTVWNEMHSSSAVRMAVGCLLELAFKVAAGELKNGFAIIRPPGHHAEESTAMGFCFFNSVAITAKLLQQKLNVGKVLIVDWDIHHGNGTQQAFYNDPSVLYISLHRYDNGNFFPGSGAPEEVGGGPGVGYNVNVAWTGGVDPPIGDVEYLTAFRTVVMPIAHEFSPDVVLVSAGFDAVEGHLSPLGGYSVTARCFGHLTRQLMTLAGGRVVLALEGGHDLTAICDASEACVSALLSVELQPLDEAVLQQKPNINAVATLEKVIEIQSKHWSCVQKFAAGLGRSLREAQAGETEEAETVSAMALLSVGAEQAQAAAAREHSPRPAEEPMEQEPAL
T3 sequence (O15379 whole entry, the tested form may be a part): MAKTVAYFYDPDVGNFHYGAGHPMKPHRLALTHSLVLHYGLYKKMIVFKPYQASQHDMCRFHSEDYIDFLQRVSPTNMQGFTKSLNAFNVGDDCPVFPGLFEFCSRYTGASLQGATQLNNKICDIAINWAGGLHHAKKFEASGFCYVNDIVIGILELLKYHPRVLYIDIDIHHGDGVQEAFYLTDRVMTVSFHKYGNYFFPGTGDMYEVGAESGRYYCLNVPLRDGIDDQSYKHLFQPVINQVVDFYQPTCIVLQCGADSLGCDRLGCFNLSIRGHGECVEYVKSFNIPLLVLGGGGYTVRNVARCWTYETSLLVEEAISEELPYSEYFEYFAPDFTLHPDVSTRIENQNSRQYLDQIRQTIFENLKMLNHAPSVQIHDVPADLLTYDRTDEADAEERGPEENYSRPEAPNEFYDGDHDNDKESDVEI
T3 sequence (Q9Y618 395-489 partner limits assumed): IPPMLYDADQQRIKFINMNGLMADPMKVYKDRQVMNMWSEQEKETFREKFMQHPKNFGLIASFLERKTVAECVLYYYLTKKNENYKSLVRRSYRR
Sequence of HDAC9 (Q9UKV0 whole entry): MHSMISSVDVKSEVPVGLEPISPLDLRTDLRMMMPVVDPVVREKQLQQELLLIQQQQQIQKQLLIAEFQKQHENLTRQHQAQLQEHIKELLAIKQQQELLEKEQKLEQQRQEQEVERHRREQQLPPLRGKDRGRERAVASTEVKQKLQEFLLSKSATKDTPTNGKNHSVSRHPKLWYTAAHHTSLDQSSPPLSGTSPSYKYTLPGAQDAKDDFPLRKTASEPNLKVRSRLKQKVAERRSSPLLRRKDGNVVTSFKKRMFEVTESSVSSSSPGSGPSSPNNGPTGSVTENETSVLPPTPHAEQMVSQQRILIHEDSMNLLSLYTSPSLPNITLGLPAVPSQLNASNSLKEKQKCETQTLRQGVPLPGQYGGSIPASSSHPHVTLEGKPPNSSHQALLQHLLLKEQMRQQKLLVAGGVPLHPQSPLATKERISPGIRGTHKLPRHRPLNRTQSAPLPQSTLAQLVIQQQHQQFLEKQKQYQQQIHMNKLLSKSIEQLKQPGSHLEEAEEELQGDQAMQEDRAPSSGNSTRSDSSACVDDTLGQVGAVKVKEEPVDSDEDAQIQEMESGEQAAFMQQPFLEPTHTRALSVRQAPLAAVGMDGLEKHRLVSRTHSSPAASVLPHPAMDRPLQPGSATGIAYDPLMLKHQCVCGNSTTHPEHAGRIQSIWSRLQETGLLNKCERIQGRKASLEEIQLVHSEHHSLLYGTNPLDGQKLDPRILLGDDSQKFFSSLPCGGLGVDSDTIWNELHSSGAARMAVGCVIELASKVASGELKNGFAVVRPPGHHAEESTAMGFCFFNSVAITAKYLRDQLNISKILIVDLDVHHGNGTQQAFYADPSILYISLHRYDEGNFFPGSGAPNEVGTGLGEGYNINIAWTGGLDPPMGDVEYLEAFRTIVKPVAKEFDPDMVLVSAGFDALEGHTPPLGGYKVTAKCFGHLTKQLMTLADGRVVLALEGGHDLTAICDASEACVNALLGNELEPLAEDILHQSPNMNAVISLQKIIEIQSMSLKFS
Sequence of HDAC2 (Q92769 whole entry): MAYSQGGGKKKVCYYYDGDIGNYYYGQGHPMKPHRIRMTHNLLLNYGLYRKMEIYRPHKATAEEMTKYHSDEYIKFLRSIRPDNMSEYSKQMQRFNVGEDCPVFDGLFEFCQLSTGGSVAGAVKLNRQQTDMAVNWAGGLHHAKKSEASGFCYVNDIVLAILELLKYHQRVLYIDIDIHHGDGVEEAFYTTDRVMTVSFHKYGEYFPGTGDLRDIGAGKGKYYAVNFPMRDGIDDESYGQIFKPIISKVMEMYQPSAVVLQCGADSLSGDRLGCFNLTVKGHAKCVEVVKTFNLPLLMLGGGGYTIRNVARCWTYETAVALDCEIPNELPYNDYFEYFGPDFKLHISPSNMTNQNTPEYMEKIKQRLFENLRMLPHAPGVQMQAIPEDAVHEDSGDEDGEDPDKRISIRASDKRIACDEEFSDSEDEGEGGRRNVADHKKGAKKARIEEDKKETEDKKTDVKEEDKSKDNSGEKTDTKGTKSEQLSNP
Sequence of HDAC1 (Q13547 whole entry): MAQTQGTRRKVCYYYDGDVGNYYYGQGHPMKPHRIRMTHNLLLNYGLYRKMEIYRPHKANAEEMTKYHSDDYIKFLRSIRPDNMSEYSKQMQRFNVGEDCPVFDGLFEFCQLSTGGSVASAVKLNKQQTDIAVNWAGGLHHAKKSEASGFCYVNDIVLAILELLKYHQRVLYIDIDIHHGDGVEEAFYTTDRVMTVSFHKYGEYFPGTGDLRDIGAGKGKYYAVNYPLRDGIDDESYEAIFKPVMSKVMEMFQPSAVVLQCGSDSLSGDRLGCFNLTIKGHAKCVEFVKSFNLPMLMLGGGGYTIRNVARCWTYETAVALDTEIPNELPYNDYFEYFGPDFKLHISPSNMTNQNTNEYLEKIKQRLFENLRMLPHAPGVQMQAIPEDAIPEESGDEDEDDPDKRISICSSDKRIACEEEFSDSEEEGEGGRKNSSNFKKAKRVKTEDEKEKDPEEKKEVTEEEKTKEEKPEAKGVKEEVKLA

SMILES	IC50 (HDAC5; [3]) [nM]	IC50 (HDAC5; [4]) [nM]	IC50 (HDAC6; [5]) [nM]	IC50 (HDAC6; [6]) [nM]	IC50 (HDAC8; [7]) [nM]	IC50 (HDAC8; [8]) [nM]	IC50 (HDAC9; [9]) [nM]	IC50 (HDAC9; [10]) [nM]	IC50 [1, 11] [nM]	IC50 [1, 12] [nM]	IC50 (HDAC11; [13]) [nM]	IC50 (HDAC11; [14]) [nM]	IC50 (HDAC1; [15]) [nM]	IC50 (HDAC1; [16]) [nM]	IC50 (HDAC2; [17]) [nM]	IC50 (HDAC2; [18]) [nM]	IC50 [2] [µM]
O=C1NC[C@@H](c2ccccc2)[C@@H]1C(=O)N[C@@H](CCCCCS)C(=O)Nc1ccccc1 [Example 31, (3S,4R)-2-Oxo-4-phenyl-pyrrolidine-3-carboxylic acid ((S)-6-mercapto-1-phenylcarbamoyl-hexyl)-amide]	< 50	< 50	< 50	< 50	< 50	< 50	< 50	< 50	< 50	< 50	< 50	< 50	< 50	< 50	< 50	< 50	1 to 10
O=C1CC[C@H](C(=O)N[C@@H](CCCCCS)C(=O)Nc2ccccc2)N1 [Example 33, (R)-5-Oxo-pyrrolidine-2-carboxylic acid ((S)-6-mercapto-1-phenylcarbamoyl-hexyl)amide]	< 50	< 50	< 50	< 50	100 to 500	100 to 500	< 50	< 50	< 50	< 50	< 50	< 50	< 50	< 50	50 to 100	50 to 100	1 to 10
O=C1NCCC[C@H]1C(=O)N[C@@H](CCCCCS)C(=O)Nc1ccccc1 [Example 35, (R)-2-Oxo-piperidine-3-carboxylic acid ((S)-6-mercapto-1-phenylcarbamoyl-hexyl)amide]		< 50		< 50		50 to 100		< 50		< 50		< 50		< 50		< 50	

Now from value to compound, other results behind:

IC50 (HDAC5; [3]) [nM]	IC50 (HDAC5; [4]) [nM]	IC50 (HDAC6; [5]) [nM]	IC50 (HDAC6; [6]) [nM]	IC50 (HDAC8; [7]) [nM]	IC50 (HDAC8; [8]) [nM]	IC50 (HDAC9; [9]) [nM]	IC50 (HDAC9; [10]) [nM]	IC50 [1, 11] [nM]	IC50 [1, 12] [nM]	IC50 (HDAC11; [13]) [nM]	IC50 (HDAC11; [14]) [nM]	IC50 (HDAC1; [15]) [nM]	IC50 (HDAC1; [16]) [nM]	IC50 (HDAC2; [17]) [nM]	IC50 (HDAC2; [18]) [nM]	SMILES	IC50 [2] [µM]
	< 50		< 50		100 to 500		< 50		< 50		< 50		< 50		< 50	O=C1NCCC[C@@H]1C(=O)N[C@@H](CCCCCS)C(=O)Nc1ccccc1 [Example 36, (S)-2-Oxo-piperidine-3-carboxylic acid ((S)-6-mercapto-1-phenylcarbamoyl-hexyl)amide]	
	< 50		< 50		100 to 500		< 50		< 50		< 50		< 50		< 50	O=C1CCC[C@H](C(=O)N[C@@H](CCCCCS)C(=O)Nc2ccccc2)N1 [Example 37, (R)-6-Oxo-piperidine-2-carboxylic acid ((S)-6-mercapto-1-phenylcarbamoyl-hexyl)amide]	
	< 50		< 50		100 to 500		< 50		< 50		< 50		< 50		< 50	Cc1cccc(NC(=O)[C@H](CCCCCS)NC(=O)[C@@H]2CCCC(=O)N2)c1 [Example 38, (S)-6-Oxo-piperidine-2-carboxylic acid ((S)-6-mercapto-1-m-tolylcarbamoyl-hexyl)amide]	
	< 50		< 50		100 to 500		< 50		< 50		< 50		< 50		50 to 100	Cc1ccc(NC(=O)[C@H](CCCCCS)NC(=O)[C@@H]2CCCC(=O)N2)cc1 [Example 39, (S)-6-Oxo-piperidine-2-carboxylic acid ((S)-6-mercapto-1-p-tolylcarbamoyl-hexyl)amide]	
	< 50		< 50		100 to 500		< 50		< 50		< 50		< 50		50 to 100	CN1C(=O)CCC[C@H]1C(=O)N[C@@H](CCCCCS)C(=O)Nc1ccccc1 [Example 40, (S)-1-Methyl-6-oxo-piperidine-2-carboxylic acid ((S)-6-mercapto-1-phenylcarbamoyl-hexyl)-amide]	
